Assay results reported in the NIST ThermoML archive (doi:10.1021/je700398k).

Conditions: Liquid

ClCC1CO1 (stereo unspecified) [1-chloro-2,3-epoxypropane]
Conditions	vapor or sublimation pressure [kPa]
315.67 K	5.916
316.53 K	6.183
318.81 K	6.915
321.9 K	8.015
324.03 K	8.859
327.03 K	10.18
330.21 K	11.74
334.22 K	14.01
334.77 K	14.32
337.79 K	16.3
339.71 K	17.66
343.98 K	21.05
345.99 K	22.82
347.15 K	23.9
350.87 K	27.61
352.3 K	29.16
354.46 K	31.66
357.56 K	35.49
359.92 K	38.7
363.28 K	43.68
367.42 K	50.42
371.36 K	57.63
375.06 K	65.2
388.29 K	98.82

CN1CCCCCC1=O [1-methylazacycloheptan-2-one]
Conditions	vapor or sublimation pressure [kPa]
402.95 K	4.019
405.13 K	4.39
411.63 K	5.651
415.53 K	6.531
420.7 K	7.906
424.29 K	8.986
428.38 K	10.38
430.35 K	11.12
434.66 K	12.84
436.35 K	13.6
443.09 K	16.89
450.68 K	21.39
458.3 K	26.82
462.79 K	30.5
468.95 K	36.27
479.21 K	47.69
510.6 K	101.4

CN1CCCC1=O [N-methylpyrrolidone]
Conditions	vapor or sublimation pressure [kPa]
380.73 K	4.742
383.12 K	5.24
386.38 K	5.98
387.92 K	6.361
389.88 K	6.862
393.04 K	7.775
400.46 K	10.29
403.85 K	11.62
406.68 K	12.87
408.96 K	13.96
411.42 K	15.22
413.77 K	16.5
416.81 K	18.28
420.94 K	20.97
424.65 K	23.65
427.56 K	25.96
432.29 K	30.08
435.85 K	33.54
439.12 K	36.99
441.74 K	39.96
444.04 K	42.73
446.64 K	46.02
451.08 K	52.18
457.46 K	62.11
475.72 K	99.4
